Each block holds one compound with its values, some of them ahead of it.
How the values were obtained:
Bcr/Abl fusion protein = Bcr/Abl fusion protein (Homo sapiens, UniProt P00519); type: protein assay
Description: Inhibition of wild type Bcr-Abl

[1] = Inhibition of HDAC
[2] = molecular target: Proto-oncogene tyrosine-protein kinase Src (Homo sapiens, UniProt P12931)
[3] = molecular target: Nitric oxide synthase, inducible (Homo sapiens, UniProt P35228); test: Inhibition of iNOS
[4] = molecular target: Epidermal growth factor receptor (Homo sapiens, UniProt P00533)
[5] = molecular target: Insulin-like growth factor 1 receptor (Homo sapiens, UniProt P08069)
[6] = Oral bioavailability in mouse; type: ADME, organism-based; conditions: in vivo
[7] = molecular target: Dual specificity tyrosine-phosphorylation-regulated kinase 1A (Homo sapiens, UniProt Q13627); test: Inhibition of DYRK1A
[8] = Inhibition of GSK3
[9] = molecular target: Cyclin-dependent kinase 5 (Homo sapiens, UniProt Q00535); test: Inhibition of CDK5
[10] = Inhibition of PDGFR
[11] = molecular target: Vascular endothelial growth factor receptor 2 (Homo sapiens, UniProt P35968)
Dihydrofolate reductase = molecular target: T1, Dihydrofolate reductase (Homo sapiens, UniProt P00374); test: Inhibition of DHFR
T1 sequence (P00374 whole entry): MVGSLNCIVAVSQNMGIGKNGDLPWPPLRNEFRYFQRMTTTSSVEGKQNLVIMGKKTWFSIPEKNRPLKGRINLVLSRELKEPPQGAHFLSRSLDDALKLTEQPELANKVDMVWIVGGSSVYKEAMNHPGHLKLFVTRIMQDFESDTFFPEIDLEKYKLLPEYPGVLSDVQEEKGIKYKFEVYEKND

[12] = molecular target: Tyrosine-protein kinase ABL1 (Homo sapiens, UniProt P00519)
Description: Inhibition of wild type Abl

[13] = molecular target: Receptor tyrosine-protein kinase erbB-2 (Homo sapiens, UniProt P04626)
[14] = molecular target: Mitogen-activated protein kinase 10 (Homo sapiens, UniProt P53779); test: Inhibition of JNK3
[15] = Inhibition of p38
[16] = molecular target: Cyclin-dependent kinase 1 (Homo sapiens, UniProt P06493); test: Inhibition of CDK1
[17] = molecular target: Glycogen synthase kinase-3 beta (Homo sapiens, UniProt P49841); test: Inhibition of GSK3-beta
[18] = molecular target: Casein kinase I isoform alpha (Homo sapiens, UniProt P48729); test: Inhibition of CK1
[19] = molecular target: Mast/stem cell growth factor receptor Kit (Homo sapiens, UniProt P10721)
[20] = molecular target: Voltage-gated inwardly rectifying potassium channel KCNH2 (Homo sapiens, UniProt Q12809); test: Inhibition of ERG
[21] = molecular target: RAC-alpha serine/threonine-protein kinase (Homo sapiens, UniProt P31749)

Sequence of Bcr/Abl fusion protein (P00519 whole entry, the tested form may be a part): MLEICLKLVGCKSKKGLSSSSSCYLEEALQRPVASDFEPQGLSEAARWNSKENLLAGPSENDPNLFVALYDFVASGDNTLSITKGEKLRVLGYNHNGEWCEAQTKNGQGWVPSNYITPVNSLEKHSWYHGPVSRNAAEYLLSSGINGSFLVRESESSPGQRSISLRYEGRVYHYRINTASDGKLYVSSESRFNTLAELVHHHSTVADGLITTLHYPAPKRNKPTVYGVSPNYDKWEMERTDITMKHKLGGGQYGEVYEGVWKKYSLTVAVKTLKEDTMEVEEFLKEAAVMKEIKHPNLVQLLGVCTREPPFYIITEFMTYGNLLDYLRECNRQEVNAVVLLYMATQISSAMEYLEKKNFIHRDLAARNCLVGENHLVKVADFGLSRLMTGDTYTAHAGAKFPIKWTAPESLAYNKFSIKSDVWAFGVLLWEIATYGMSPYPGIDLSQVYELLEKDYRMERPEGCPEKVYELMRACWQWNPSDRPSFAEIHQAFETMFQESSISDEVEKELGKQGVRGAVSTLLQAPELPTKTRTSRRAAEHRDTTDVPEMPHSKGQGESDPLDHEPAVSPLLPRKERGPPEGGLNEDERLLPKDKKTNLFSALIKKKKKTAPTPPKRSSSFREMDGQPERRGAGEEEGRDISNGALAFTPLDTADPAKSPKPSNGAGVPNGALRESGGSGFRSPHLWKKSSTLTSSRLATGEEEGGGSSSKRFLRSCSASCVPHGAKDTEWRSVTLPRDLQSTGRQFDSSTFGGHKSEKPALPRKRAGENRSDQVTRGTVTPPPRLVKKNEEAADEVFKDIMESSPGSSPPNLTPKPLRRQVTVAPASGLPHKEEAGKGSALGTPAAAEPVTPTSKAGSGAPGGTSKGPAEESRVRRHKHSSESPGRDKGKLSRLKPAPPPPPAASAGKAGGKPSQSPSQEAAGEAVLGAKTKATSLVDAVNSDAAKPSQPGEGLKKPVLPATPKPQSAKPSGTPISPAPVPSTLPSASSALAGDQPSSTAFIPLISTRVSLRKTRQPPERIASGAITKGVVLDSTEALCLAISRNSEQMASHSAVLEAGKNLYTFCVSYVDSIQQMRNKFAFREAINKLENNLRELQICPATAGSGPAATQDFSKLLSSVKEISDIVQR
Sequence of Bcr/Abl fusion protein (P11274 whole entry, further chain, the tested form may be a part): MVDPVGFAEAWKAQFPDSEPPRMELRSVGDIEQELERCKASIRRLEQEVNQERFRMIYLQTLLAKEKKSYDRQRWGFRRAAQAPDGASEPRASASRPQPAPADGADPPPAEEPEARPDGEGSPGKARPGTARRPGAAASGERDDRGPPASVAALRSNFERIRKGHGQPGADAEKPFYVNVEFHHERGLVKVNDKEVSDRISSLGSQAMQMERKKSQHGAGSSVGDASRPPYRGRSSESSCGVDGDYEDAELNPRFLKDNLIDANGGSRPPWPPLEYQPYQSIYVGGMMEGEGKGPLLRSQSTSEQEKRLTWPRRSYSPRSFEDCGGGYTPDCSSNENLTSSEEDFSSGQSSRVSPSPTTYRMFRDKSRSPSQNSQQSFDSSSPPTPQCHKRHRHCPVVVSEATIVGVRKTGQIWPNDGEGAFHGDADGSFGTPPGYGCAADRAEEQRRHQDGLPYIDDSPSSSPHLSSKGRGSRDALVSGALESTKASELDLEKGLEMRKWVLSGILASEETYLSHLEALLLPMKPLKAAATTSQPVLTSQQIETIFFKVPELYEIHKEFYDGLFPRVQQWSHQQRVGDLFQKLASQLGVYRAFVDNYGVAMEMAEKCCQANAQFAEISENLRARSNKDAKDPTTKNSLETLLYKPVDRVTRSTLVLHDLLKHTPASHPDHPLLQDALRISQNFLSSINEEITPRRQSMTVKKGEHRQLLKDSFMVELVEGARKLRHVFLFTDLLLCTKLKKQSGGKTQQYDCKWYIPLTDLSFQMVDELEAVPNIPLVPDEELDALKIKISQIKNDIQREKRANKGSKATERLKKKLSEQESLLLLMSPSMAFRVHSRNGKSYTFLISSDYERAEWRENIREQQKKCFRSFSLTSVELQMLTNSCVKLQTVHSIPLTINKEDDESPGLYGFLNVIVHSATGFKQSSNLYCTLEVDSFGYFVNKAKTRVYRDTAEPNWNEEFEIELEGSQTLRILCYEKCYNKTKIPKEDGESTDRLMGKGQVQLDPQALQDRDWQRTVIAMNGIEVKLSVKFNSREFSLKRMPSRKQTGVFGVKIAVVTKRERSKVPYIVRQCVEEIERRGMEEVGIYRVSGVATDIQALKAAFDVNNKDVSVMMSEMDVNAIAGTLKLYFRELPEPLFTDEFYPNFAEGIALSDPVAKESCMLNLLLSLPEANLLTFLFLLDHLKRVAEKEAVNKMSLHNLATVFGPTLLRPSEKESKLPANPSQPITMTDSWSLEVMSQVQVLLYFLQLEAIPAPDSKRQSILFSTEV
Sequence of Insulin-like growth factor 1 receptor (P08069 31-736 limits assumed): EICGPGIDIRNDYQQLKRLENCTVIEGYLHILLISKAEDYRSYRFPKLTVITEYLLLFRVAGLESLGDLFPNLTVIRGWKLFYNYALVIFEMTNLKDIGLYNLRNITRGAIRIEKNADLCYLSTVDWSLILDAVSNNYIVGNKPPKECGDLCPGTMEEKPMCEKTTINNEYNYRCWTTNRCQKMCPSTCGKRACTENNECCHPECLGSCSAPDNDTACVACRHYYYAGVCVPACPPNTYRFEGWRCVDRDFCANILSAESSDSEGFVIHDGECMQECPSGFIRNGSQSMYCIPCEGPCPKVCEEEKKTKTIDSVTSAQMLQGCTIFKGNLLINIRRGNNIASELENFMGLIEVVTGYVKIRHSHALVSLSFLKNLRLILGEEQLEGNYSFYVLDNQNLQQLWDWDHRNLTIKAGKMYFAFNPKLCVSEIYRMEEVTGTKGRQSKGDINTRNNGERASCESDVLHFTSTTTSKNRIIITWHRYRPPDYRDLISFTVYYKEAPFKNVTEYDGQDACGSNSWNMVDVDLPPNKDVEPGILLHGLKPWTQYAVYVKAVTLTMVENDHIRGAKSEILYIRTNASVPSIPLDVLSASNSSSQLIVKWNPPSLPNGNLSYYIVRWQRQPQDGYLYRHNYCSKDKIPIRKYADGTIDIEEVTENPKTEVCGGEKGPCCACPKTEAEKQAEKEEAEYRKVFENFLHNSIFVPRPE
Sequence of Insulin-like growth factor 1 receptor (P08069 741-1367 limits assumed): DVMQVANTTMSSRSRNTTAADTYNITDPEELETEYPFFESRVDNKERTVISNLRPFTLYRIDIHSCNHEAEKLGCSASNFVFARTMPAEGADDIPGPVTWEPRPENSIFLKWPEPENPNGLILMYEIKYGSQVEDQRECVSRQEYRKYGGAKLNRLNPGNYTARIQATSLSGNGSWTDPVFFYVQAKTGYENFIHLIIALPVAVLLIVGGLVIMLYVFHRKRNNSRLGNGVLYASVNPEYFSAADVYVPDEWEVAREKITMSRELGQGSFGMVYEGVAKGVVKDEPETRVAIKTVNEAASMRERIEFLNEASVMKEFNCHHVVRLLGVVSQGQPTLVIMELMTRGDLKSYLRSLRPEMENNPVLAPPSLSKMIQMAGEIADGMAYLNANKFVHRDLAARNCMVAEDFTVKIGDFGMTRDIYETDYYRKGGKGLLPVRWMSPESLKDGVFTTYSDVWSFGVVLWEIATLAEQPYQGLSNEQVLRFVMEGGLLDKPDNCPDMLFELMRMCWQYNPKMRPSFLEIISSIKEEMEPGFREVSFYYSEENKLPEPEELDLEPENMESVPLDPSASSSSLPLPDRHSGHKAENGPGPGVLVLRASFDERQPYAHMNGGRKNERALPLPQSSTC
Sequence of Epidermal growth factor receptor (P00533 whole entry): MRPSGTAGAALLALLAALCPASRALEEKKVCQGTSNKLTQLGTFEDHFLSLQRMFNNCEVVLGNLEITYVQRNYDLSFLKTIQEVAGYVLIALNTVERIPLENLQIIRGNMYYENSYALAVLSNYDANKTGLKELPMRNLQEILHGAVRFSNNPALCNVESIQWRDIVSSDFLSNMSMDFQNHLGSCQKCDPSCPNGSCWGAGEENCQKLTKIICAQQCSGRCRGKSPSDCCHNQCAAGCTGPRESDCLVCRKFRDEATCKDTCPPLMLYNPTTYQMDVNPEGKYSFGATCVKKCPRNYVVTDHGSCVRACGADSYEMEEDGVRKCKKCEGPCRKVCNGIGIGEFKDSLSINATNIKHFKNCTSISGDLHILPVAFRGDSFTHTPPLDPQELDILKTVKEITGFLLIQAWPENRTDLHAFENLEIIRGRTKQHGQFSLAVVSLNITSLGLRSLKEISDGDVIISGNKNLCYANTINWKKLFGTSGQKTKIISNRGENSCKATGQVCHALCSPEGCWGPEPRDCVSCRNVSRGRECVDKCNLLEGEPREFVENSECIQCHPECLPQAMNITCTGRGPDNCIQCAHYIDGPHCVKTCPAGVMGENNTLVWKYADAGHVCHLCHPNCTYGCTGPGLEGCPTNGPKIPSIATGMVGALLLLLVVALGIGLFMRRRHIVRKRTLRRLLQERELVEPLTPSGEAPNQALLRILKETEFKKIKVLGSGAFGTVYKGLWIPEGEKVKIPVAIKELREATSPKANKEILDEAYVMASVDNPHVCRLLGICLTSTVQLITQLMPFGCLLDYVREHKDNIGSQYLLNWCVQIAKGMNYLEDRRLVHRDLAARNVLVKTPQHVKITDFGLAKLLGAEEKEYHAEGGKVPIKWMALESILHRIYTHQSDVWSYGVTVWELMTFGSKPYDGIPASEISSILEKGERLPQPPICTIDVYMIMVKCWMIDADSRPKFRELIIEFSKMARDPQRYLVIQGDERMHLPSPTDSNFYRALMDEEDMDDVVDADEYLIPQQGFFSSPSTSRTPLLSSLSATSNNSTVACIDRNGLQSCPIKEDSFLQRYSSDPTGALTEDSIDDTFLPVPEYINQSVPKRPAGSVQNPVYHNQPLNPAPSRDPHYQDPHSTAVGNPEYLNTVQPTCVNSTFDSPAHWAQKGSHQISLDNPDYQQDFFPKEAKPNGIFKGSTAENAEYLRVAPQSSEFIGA
Sequence of Tyrosine-protein kinase ABL1 (P00519 whole entry): as the sequence (P00519 whole entry, the tested form may be a part) above

Compound: Cc1ccc(NC(=O)c2ccc(/C=C/C(=O)NO)cc2)cc1Nc1nc(-c2cccnc2)cs1
IC50 (Bcr/Abl fusion protein): 2700 nM
IC50 [1]: 80 nM

Compound: Cc1cc2c(Nc3ccc4nc(N)sc4c3)c(C#N)cnc2cc1OCCN1CCCCC1
IC50 [2]: 15 nM
IC50 [3]: 313000 nM

Compound: COc1ccccc1Cc1nc2ccc(-c3nn([C@H]4CC[C@H](C5CCN(C)CC5)CC4)c4ncnc(N)c34)cc2[nH]1
IC50 [4]: 58 nM
IC50 [5]: 81 nM
bioavailability [6]: 12%

Compound: N#Cc1c(N)cc2[nH]nc(N)c2c1-c1ccccc1
IC50 [7]: 410 nM
IC50 [8]: 15000 nM
IC50 [9]: 11000 nM

Compound: C/C(=C/c1coc2nc(N)nc(N)c12)c1cccc2ccccc12
IC50 [11]: 2000 nM
IC50 (Dihydrofolate reductase): 10000 nM

Compound: Cc1cn(-c2cc(NC(=O)c3ccc(C)c(/C=C/N4CNc5c(NC6CC6)ncnc54)c3)cc(C(F)(F)F)c2)cn1
IC50 (Bcr/Abl fusion protein): 8 nM
IC50 [12]: 25 nM

Compound: C#Cc1cccc(Nc2ncnc3cc(OC)c(OCCCCCCC(=O)NO)cc23)c1 [CUDC-101]
IC50 [1]: 4.4 nM

Compound: CCC(CO)Nc1nc(Nc2cccc(-c3ccccn3)c2)c2ncn(C(C)C)c2n1 (stereo unspecified)
IC50 [16]: 220 nM
IC50 [17]: 4100 nM
IC50 [18]: 14 nM

Compound: c1ccc(-c2cc3c(ccn4cnnc34)nc2-c2ccc(CN3CCC(c4nnc(-c5ccccn5)[nH]4)CC3)cc2)cc1
IC50 [20]: > 10000 nM

Compound: Cn1nnnc1-c1cnc(-c2ccc(CN3CCC(n4c(=O)[nH]c5ccccc54)CC3)cc2)c(-c2ccccc2)c1
IC50 [21]: 273 nM

Compound: Cc1cn(-c2cc(NC(=O)c3ccc(C)c(Nc4nccc(-c5cccnc5)n4)c3)cc(C(F)(F)F)c2)cn1 [NILOTINIB]
IC50 [10]: 25 nM

The remaining lines, values ahead:

IC50 [10]: 2 nM
Compound: Nc1ncnc2c1c(-c1cnc3[nH]ccc3c1)nn2C1CCCC1

IC50 [4]: 58 nM
IC50 [5]: 81 nM
IC50 [13]: 54 nM
Compound: COCCCN1CCC([C@H]2CC[C@H](n3nc(-c4ccc5nc(Cc6ccccc6Cl)[nH]c5c4)c4c(N)ncnc43)CC2)CC1

IC50 [1]: > 100 nM
IC50 [10]: 39 nM
Compound: Cc1ccc(NC(=O)c2ccc(CN3CCN(C)CC3)cc2)cc1Nc1nccc(-c2cccnc2)n1 [IMATINIB]

IC50 [14]: 26 nM
IC50 [15]: 2 nM
Compound: c1ccc(-c2noc(CN3CCCCC3)c2-c2ccnc(NC3CCCCC3)n2)cc1

IC50 [19]: 43 nM
IC50 (Bcr/Abl fusion protein): 11000 nM
Compound: Cc1ccc(-c2ccnc(Nc3cc(NC(=O)c4ccc(CN5CCN(C)CC5)cc4)ccc3C)n2)cn1
